# “And” between values parts separate entries of the source, which are not always exact repeats. Equal values may be shown once. Toxic doses and inconclusive results are not listed.
# Test system: P388 leukemia ip, CD2F1 mice, survival T/C
# Test: NCI In Vivo Anticancer Drug Screen. Data for tumor model P388 Leukemia (intraperitoneal) in CD2F1 (CDF1) mice
# Conditions: endpoint: median survival time, higher = longer survival
# Procedure, shortened: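 Mice carrying the transplanted tumor received test compound or vehicle. Survival was recorded in each group, and the value is the treated-group measurement divided by that of the vehicle-treated control group.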
# [1] = dose: 100.0 mg/kg/injection, schedule: Q04DX002 (ip), vehicle: Klucel (hydroxypropylcellulose) (HPC)
# [2] = dose: 200.0 mg/kg/injection, schedule: Q04DX002 (ip), vehicle: Klucel (hydroxypropylcellulose) (HPC)
# [3] = dose: 50.0 mg/kg/injection, schedule: Q01DX005 (ip), vehicle: saline with Tween-80
# [4] = dose: 100.0 mg/kg/injection, schedule: Q01DX005 (ip), vehicle: saline with Tween-80
# [5] = dose: 100.0 mg/kg/injection, schedule: Q01DX009 (ip), vehicle: saline with Tween-80
# [6] = dose: 50.0 mg/kg/injection, schedule: Q01DX009 (ip), vehicle: saline with Tween-80
# [7] = dose: 200.0 mg/kg/injection, schedule: Q01DX005 (ip), vehicle: saline with Tween-80
# [8] = dose: 50.0 mg/kg/injection, schedule: Q01DX009 (ip), vehicle: saline
# [9] = dose: 100.0 mg/kg/injection, schedule: Q01DX009 (ip), vehicle: saline
# [10] = dose: 200.0 mg/kg/injection, schedule: Q01DX009 (ip), vehicle: saline
# [11] = dose: 12.5 mg/kg/injection, schedule: Q01DX009 (ip), vehicle: saline with Tween-80
# [12] = dose: 25.0 mg/kg/injection, schedule: Q01DX009 (ip), vehicle: saline with Tween-80
smiles,measurement,setting,value
Cc1nn(-c2ccccc2)c([O-])c1[N+]#N,T/C,[1],102 % of control
same,T/C,[2],102 % of control
same,T/C,"dose: 400.0 mg/kg/injection, schedule: Q04DX002 (ip), vehicle: Klucel (hydroxypropylcellulose) (HPC)",100 % of control
CC(=O)NC[Si](C)(C)C,T/C,"dose: 60.0 mg/kg/injection, schedule: Q01DX005 (ip), vehicle: saline",93 % of control
same,T/C,"dose: 120.0 mg/kg/injection, schedule: Q01DX005 (ip), vehicle: saline",96 % of control
same,T/C,"dose: 240.0 mg/kg/injection, schedule: Q01DX005 (ip), vehicle: saline",103 % of control
CCCCN(CCCC)CC(O)c1ccc(F)c2ccccc12 (configuration not stated),T/C,"dose: 12.5 mg/kg/injection, schedule: Q01DX005 (ip), vehicle: saline",96 % of control
same,T/C,"dose: 25.0 mg/kg/injection, schedule: Q01DX005 (ip), vehicle: saline",105 % of control
same,T/C,[3],113 % of control
same,T/C,"dose: 50.0 mg/kg/injection, schedule: Q01DX005 (ip), vehicle: saline",99 % of control
same,T/C,[4],97 % of control
CC(C)(C)N1COCCOC1,T/C,[5],118 % of control
Nc1nc2c(C(=O)N3CCCC3)nnn2c2ccccc12,T/C,[6],93 % of control
same,T/C,[5],94 % of control
COc1c2occc2c(NC(=O)CCl)c2ccc(=O)oc12,T/C,"dose: 100.0 mg/kg/injection, schedule: Q04DX002 (ip), vehicle: saline with Tween-80",100 % of control
same,T/C,"dose: 200.0 mg/kg/injection, schedule: Q04DX002 (ip), vehicle: saline with Tween-80",93 % of control
Cc1nc2scc(-c3ccc(Cl)cc3)n2c(=O)c1CN1CCCCC1,T/C,"dose: 50.0 mg/kg/injection, schedule: Q04DX002 (ip), vehicle: Klucel (hydroxypropylcellulose) (HPC)",97 % of control
same,T/C,[1],95 % of control
same,T/C,[2],97 % of control
CC[N+](C)(C)c1nc(N(C)C)nc(N(C)C)n1,T/C,"dose: 6.0 mg/kg/injection, schedule: Q01DX005 (ip), vehicle: saline",108 % of control
same,T/C,"dose: 12.0 mg/kg/injection, schedule: Q01DX005 (ip), vehicle: saline",118 % of control
Cn1c2ccccc2c2ccc3c(c21)C(=O)C=CC3=O,T/C,"dose: 25.0 mg/kg/injection, schedule: Q01DX009 (ip), vehicle: distilled water + Tween-80",120 % of control
O=S1(=O)N=C(N2CCOCC2)c2ccccc21,T/C,[3],101 % of control
same,T/C,[4],101 % of control
same,T/C,[7],99 % of control
COc1c(C#N)c2c(c(OC)c1OC)-c1ccc(OC)c(=O)cc1[C@@H](NC(C)=O)CC2,T/C,"dose: 3.12 mg/kg/injection, schedule: Q01DX009 (ip), vehicle: Klucel (hydroxypropylcellulose) (HPC)",113 % of control
CN(N=O)C(=O)NCC1OC(OC2(CO)OC(CNC(=O)N(C)N=O)C(O)C2O)C(O)C(O)C1O (configuration not stated),T/C,[8],103 % of control and 109 % of control and 120 % of control
same,T/C,[9],112 % of control and 120 % of control
same,T/C,[10],104 % of control
Clc1ccccc1C(Nc1cnccn1)Nc1cnccn1,T/C,[3],120 % of control
same,T/C,[4],114 % of control
same,T/C,[7],110 % of control
same,T/C,"dose: 400.0 mg/kg/injection, schedule: Q01DX005 (ip), vehicle: saline with Tween-80",121 % of control
C/C(=N/NC(N)=S)C1CCC2C3CCC4CCCCC4(C)C3CC(O)C12C (configuration not stated),T/C,[11],101 % of control
same,T/C,[12],93 % of control
same,T/C,[6],92 % of control
[O-][n+]1c(CCl)nc2ccccc2c1-c1ccccc1F,T/C,[11],103 % of control
same,T/C,[12],103 % of control
same,T/C,[6],103 % of control
CN1CCC2OC2C1=NC#N (configuration not stated),T/C,"dose: 12.5 mg/kg/injection, schedule: Q01DX009 (ip), vehicle: saline",102 % of control
same,T/C,"dose: 25.0 mg/kg/injection, schedule: Q01DX009 (ip), vehicle: saline",101 % of control
same,T/C,[8],105 % of control
same,T/C,[9],101 % of control
same,T/C,[10],97 % of control
Cc1nn(-c2ccccc2)c(=O)n2c1nc1ccccc12,T/C,"dose: 60.0 mg/kg/injection, schedule: Q01DX005 (ip), vehicle: Klucel (hydroxypropylcellulose) (HPC)",99 % of control
same,T/C,"dose: 120.0 mg/kg/injection, schedule: Q01DX005 (ip), vehicle: Klucel (hydroxypropylcellulose) (HPC)",97 % of control
same,T/C,"dose: 240.0 mg/kg/injection, schedule: Q01DX005 (ip), vehicle: Klucel (hydroxypropylcellulose) (HPC)",91 % of control

# Reference: PubChem BioAssay AID330 (DTP/NCI, 2004)
